From publication PMC6270338, “Diterpenylquinone Hybrids: Synthesis and Assessment of Gastroprotective Mechanisms of Action in Human Cells” (Molecules, 2013)
One block for each compound: values may come before it.

Experiments:
[1] = test system: HCl-EtOH-induced gastric lesions; parameters: method as in PMID 21996716; details: mice, orally, single dose of 5 mg/kg; cited from earlier work
[2] = Cytotoxicity, neutral red uptake assay, AGS; assay type: cell-based; details: human, AGS gastric epithelial cells, confluent monolayer, read-out: IC50 ± SD, cytotoxicity AGS
Protocol: (§1) Human lung fibroblasts MRC-5 (ATCC CCL-171) were grown in minimum essential Eagle medium (MEM) with Earles’s salts and 2 mM L-glutamine (Sigma-Aldrich Co.). Human epithelial gastric cells AGS (ATCC CRL-1739) were grown in Ham F-12 medium containing 1 mM L-glutamine. Both media were supplemented with 1.5 g/L sodium bicarbonate (Sigma-Aldrich Co.), 10% heat-inactivated fetal bovine serum (FBS), 100 IU/mL penicillin and 100 µg/mL streptomycin.Both cell lines were grown as monolayers in a humidified incubator with 5% CO2 in air at 37 °C. Culture media, antibiotics and FBS were obtained from Invitrogen Corp.
(§2) Cytotoxicity values were required as a reference to determine the working concentrations in the subsequent experiments. Briefly, confluent cultures of MRC-5 and AGS cells were treated during 24 h with medium containing the compounds at concentrations ranging from 0 up to 1,000 µM. The products were first dissolved in DMSO (1% final concentration) and then in the corresponding culture medium supplemented with 2% FBS. Untreated cells were used as controls. Cell viability was determined at the end of the incubation by means of the neutral red uptake (NRU) assay. Lansoprazole (Sigma-Aldrich Co., min. 98% by TLC) was used as reference compound.

[3] = test system: AGS cells; assay: Cellular reduced glutathione (GSH) content of AGS cells; assay type: cell-based, human; details: 4 h; for GSH: post-confluent AGS, control 13.6 ± 0.7
Protocol: Untreated cells were used as controls. […] After incubation, the GSH content was determined using a colorimetric kit (BioAssays Systems, Hayward, CA, USA). Results are expressed as nanomol of soluble reduced sulfhydryls/10^6 cells.

[4] = test system: AGS cells; assay: Prostaglandin E2 (PGE2) content of AGS cells; assay type: cell-based, human; details: 1 h; for PGE2: post-confluent AGS, control 52 ± 5
Protocol: One day after confluence, AGS cells were treated for 1 h with the compounds at 1/2 and 1/4 of the respective IC50 values. A control with medium only was included. Indomethacin (100 μM) was used as standard inhibitor of prostaglandin synthesis (Sigma-Aldrich Co., min. 99% by TLC). After incubation, PGE2 content was determined by means of a specific enzyme immunoassay kit (R & D Systems KGE004B, Minneapolis, MN, USA) and values were calculated according to the manufacturer instructions. Results are expressed as pg/well.

[5] = Cytotoxicity, neutral red uptake assay, MRC-5; assay type: cell-based; details: human, MRC-5 lung fibroblasts, confluent monolayer, confluent MRC-5, 24 h, read-out: IC50 ± SD, cytotoxicity MRC-5
Protocol: as §1, §2

[6] = test system: human erythrocyte membranes; assay: Inhibition of lipoperoxidation in erythrocyte membranes; assay type: biochemical
[7] = test system: human erythrocyte membranes; assay: as above; assay type: biochemical; details: at 100 µg/mL
Protocol: The inhibition of lipid peroxidation was determined using human erythrocyte membranes. The compounds were tested at 100 µg/mL.

IC50, inhibition of the lipoperoxidation [6]: IC50 40.1 ± 5.3 µg/mL
SMILES: C=C1CCC2[C@](C)(CCC[C@]2(C)C(=O)O)[C@H]1CC[C@@H](C)CC(=O)OC1=C(CCC(C)C)C(=O)c2ccccc2C1=O (stereo partly drawn) [Compound 9, Dihydroprenyl lapachol junicedrate]
gastroprotective effect in vivo [1]: significant activity
IC50 at 24 h [2]: 49 ± 10 µM
activation at 6 µM ([3]; Homo sapiens, AGS, 6 µM, read-out: increase of GSH content compared to untreated controls): 15%
activation at 12 µM ([3]; Homo sapiens, AGS, 12 µM, read-out: increase of GSH content compared to untreated controls): 16%
GSH ([3]; 6 µM): * 15.6 ± 0.6 nmol/10^6 cells
GSH ([3]; 12 µM): * 15.8 ± 0.6 nmol/10^6 cells
fold induction at 12.5 µM ([4]; Homo sapiens, AGS, 12.5 µM, read-out: increase in PGE2 content): 5.9
PGE2 ([4]; 12.5 µM): 309 ± 29 pg/mL
IC50 at 24 h [5]: 449 ± 27 µM

SMILES: COC(=O)[C@@]1(C)CCC[C@]2(C)C(CC[C@@H](C)CC(=O)OC3=C(CCC(C)C)C(=O)c4ccccc4C3=O)=C(C)CCC12 (stereo partly drawn) [Compound 22, Dihydroprenyl lapachoyl Δ8(9) junicedrate methyl ester]
gastroprotective effect in vivo [1]: significant activity
IC50 at 24 h [2]: 340 ± 20 µM
GSH ([3]; 43 µM): 13.6 ± 0.9 nmol/10^6 cells
GSH ([3]; 85 µM): 14.2 ± 0.6 nmol/10^6 cells
fold induction at 170 µM ([4]; Homo sapiens, AGS, 170 µM, read-out: increase in PGE2 content): 2.2
PGE2 ([4]; 170 µM): 114 ± 11 pg/mL
IC50 at 24 h [5]: 848 ± 51 µM
% Inhibition of the lipoperoxidation [7]: 46%

IC50, inhibition of the lipoperoxidation [6]: IC50 81.4 ± 11.0 µg/mL
SMILES: C=C1CCC2[C@](C)(CCC[C@]2(C)C(=O)OC)[C@H]1CC[C@@H](C)CC(=O)OC1=C(CC=C(C)C)C(=O)c2ccccc2C1=O (stereo partly drawn) [Compound 8, Lapachoyl junicedrate methyl ester]
gastroprotective effect in vivo [1]: active
IC50 at 24 h [2]: > 1000 µM
activation at 125 µM ([3]; Homo sapiens, AGS, 125 µM, read-out: increase of GSH content compared to untreated controls): 19%
activation at 250 µM ([3]; Homo sapiens, AGS, 250 µM, read-out: increase of GSH content compared to untreated controls): 24%
GSH ([3]; 125 µM): * 16.2 ± 0.6 nmol/10^6 cells
GSH ([3]; 250 µM): * 16.8 ± 0.9 nmol/10^6 cells
fold induction at 250 µM ([4]; Homo sapiens, AGS, 250 µM, read-out: increase in PGE2 content): 5.2
fold induction at 500 µM ([4]; Homo sapiens, AGS, 500 µM, read-out: increase in PGE2 content): 15.2
PGE2 ([4]; 250 µM): 272 ± 30 pg/mL
PGE2 ([4]; 500 µM): 787 ± 56 pg/mL
IC50 at 24 h [5]: > 1000 µM

IC50, inhibition of the lipoperoxidation [6]: IC50 58.1 ± 4.1 µg/mL
SMILES: COC(=O)[C@@]1(C)CCC[C@]2(C)C(CC[C@@H](C)CC(=O)OC3=C(CC=C(C)C)C(=O)c4ccccc4C3=O)=C(C)CCC12 (stereo partly drawn) [Compound 20, Lapachoyl Δ8(9) junicedrate methyl ester]
gastroprotective effect in vivo [1]: active
IC50 at 24 h [2]: 321 ± 24 µM
activation at 40 µM ([3]; Homo sapiens, AGS, 40 µM, read-out: increase of GSH content compared to untreated controls): 19%
activation at 80 µM ([3]; Homo sapiens, AGS, 80 µM, read-out: increase of GSH content compared to untreated controls): 13%
GSH ([3]; 40 µM): * 16.2 ± 1.0 nmol/10^6 cells
GSH ([3]; 80 µM): * 15.4 ± 1.3 nmol/10^6 cells
IC50 at 24 h [5]: 483 ± 31 µM

IC50, inhibition of the lipoperoxidation [6]: IC50 99.4 ± 9.1 µg/mL
SMILES: C=C1CCC2[C@](C)(CCC[C@]2(C)C(=O)OC)[C@H]1CC[C@@H](C)CC(=O)OC1=C(CCC(C)C)C(=O)c2ccccc2C1=O (stereo partly drawn) [Compound 10, Dihydroprenyl lapachoyl junicedrate methyl ester]
gastroprotective effect in vivo [1]: significant activity
IC50 at 24 h [2]: 659 ± 42 µM
GSH ([3]; 83 µM): 13.4 ± 0.7 nmol/10^6 cells
GSH ([3]; 165 µM): 13.0 ± 0.7 nmol/10^6 cells
fold induction at 162 µM ([4]; Homo sapiens, AGS, 162 µM, read-out: increase in PGE2 content): 5.9
fold induction at 323 µM ([4]; Homo sapiens, AGS, 323 µM, read-out: increase in PGE2 content): 8.9
PGE2 ([4]; 162 µM): 306 ± 32 pg/mL
PGE2 ([4]; 323 µM): 465 ± 39 pg/mL
IC50 at 24 h [5]: > 1000 µM
